Assay results: US20190048016A1, “SUBSTITUTED BRIDGED UREA ANALOGS AS SIRTUIN MODULATORS” (GlaxoSmithKline Intellectual Property(No.2)Limited, priority 2014, published 2019)

Target: T1, SIRT1 (Homo sapiens, UniProt Q96EB6)
T1 sequence (Q96EB6 1-747): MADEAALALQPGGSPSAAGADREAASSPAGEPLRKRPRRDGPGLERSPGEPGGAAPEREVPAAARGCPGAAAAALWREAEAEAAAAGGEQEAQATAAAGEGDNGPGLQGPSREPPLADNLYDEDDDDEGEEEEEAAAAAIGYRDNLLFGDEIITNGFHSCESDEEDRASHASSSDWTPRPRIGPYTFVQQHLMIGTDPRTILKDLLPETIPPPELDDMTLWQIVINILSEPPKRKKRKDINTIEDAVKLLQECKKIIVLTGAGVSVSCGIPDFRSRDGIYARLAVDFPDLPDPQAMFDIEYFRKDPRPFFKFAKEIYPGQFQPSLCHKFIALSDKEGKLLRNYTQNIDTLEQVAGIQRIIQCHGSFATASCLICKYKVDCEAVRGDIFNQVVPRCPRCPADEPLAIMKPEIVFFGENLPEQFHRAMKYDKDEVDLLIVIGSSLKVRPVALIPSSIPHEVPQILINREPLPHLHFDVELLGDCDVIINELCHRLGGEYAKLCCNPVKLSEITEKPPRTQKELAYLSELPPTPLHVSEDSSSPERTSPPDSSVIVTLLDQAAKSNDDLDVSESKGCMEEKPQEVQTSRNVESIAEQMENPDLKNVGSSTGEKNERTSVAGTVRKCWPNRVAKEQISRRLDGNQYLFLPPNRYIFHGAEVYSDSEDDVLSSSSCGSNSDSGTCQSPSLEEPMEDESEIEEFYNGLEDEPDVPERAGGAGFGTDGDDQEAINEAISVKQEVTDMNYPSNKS
Test: Trp mass spectrometry assay of SIRT1 activation (deacetylation of Ac-R-H-K-K(Ac)-W-NH2 peptide, OAADPR formation)
Assay type: biochemical
Details: Trp peptide 0.5 μM, 120 μM βNAD+, 10 nM SIRT1, 25 min, 25° C.; for Emax: 25 min, read-out: TRP MAX RESP (percent maximum fold activation relative to control = 100%)
From the text: Mass spectrometry based assays were used to identify modulators of SIRT1 activity. The TAMRA based assay utilized a peptide having 20 amino acid residues as follows: Ac-EE-K(biotin)-[…](Ac)NleSTEG-K(5TMR)-EE-NH2 (SEQ ID NO: 1), wherein K(Ac) is an acetylated lysine residue and Nle is a norleucine. The peptide was labeled with the fluorophore 5TMR (excitation 540 nm/emission 580 nm) at the C-terminus. The sequence of the peptide substrate was based on p53 with several modifications. In addition, the methionine residue naturally present in the sequence was replaced with the norleucine because the methionine may be susceptible to oxidation during synthesis and purification. The Trp based assay utilized a peptide having an amino acid residues as follows: Ac-R-H-K-K(Ac)-W-NH2 (SEQ ID NO: 2).
The Trp mass spectrometry assay was conducted as follows. 0.5 μM peptide substrate and 120 μM βNAD^+ were incubated with 10 nM SIRT1 for 25 minutes at 25° C. in a reaction buffer (50 mM HEPES pH 7.5, […], 1 mM DTT, 0.05% BSA). The SIRT1 protein was obtained by cloning the SirT1 gene into a T7-promoter containing vector, which was then expressed in BL21(DE3) bacterial cells and purified as described in further detail below. Test compound was added at varying concentrations to this reaction mixture and the resulting reactions were monitored. After the 25 minute incubation with SIRT1, 10 μL of 10% formic acid was added to stop the reaction. The resulting reactions were sealed and frozen for later mass spec analysis. The relative SIRT1 activity was then determined by measuring the amount of O-acetyl-ADP-ribose (OAADPR) formed (or, alternatively, the amount of deacetylated Trp peptide generated) by the NAD-dependent sirtuin deacetylation reaction in the presence of varying concentrations of the test compound versus control reactions lacking the test compound. The degree to which the test agent activated deacetylation by SIRT1 was expressed as EC1.5 (i.e., the concentration of compound required to increase SIRT1 activity by 50% over the control lacking test compound), and Percent Maximum Activation (i.e., the maximum activity relative to control (100%) obtained for the test compound).
A control for inhibition of sirtuin activity was conducted by adding 1 μL of 500 mM nicotinamide as a negative control at the start of the reaction (e.g., permits determination of maximum sirtuin inhibition). A control for activation of sirtuin activity was conducted using 10 nM of sirtuin protein, with 1 μL of DMSO in place of compound, to determine the amount of deacetylation of the substrate at a given time point within the linear range of the assay. This time point was the same as that used for test compounds and, within the linear range, the endpoint represents a change in velocity.
For the above assay, SIRT1 protein was expressed and purified as follows. The SirT1 gene was cloned into a T7-promoter containing vector and transformed into BL21(DE3). The protein was expressed by induction with 1 mM IPTG as an N-terminal His-tag fusion protein at 18° C. overnight and harvested at 30,000×g. Cells were lysed with lysozyme in lysis buffer (50 mM Tris-HCl, 2 mM Tris[2-carboxyethyl] phosphine (TCEP), 10 μM ZnCl2, 200 mM NaCl) and further treated with sonication for 10 min for complete lysis. The protein was purified over a Ni-NTA column (Amersham) and fractions containing pure protein were pooled, concentrated and run over a sizing column (Sephadex S200 26/60 global). The peak containing soluble protein was collected and run on an Ion-exchange column (MonoQ). Gradient elution (200 mM-500 mM NaCl) yielded pure protein. This protein was concentrated and dialyzed against dialysis buffer (20 mM Tris-HCl, 2 mM TCEP) overnight. The protein was aliquoted and frozen at −80° C. until further use.
Sirtuin-modulating compounds of Formula (I) that activated SIRT1 were identified using the assay described above and are shown below in Table 1. […]

Row | Emax [%] | TRP Activity (EC1.5, concentration of compound required to increase SIRT1 activity by 50% over control) | TRP MAX RESP (percent maximum fold activation relative to control = 100%) | Compound
1 | ≥ 150 | A (EC1.5<1 μM) |  | O=C(Nc1ncc(OC[C@@H](O)CO)cn1)N1c2nc(-c3cccc(C(F)(F)F)c3)c(Cl)cc2N2CCC[C@H]1C2 [Example 92, (9S)-3-chloro-N-(5-((S)-2,3-dihydroxypropoxy)pyrimidin-2-yl)-2-(3-(trifluoromethyl)phenyl)-8,9-dihydro-6H-5,9-methanopyrido[2,3-b][1,4]diazocine-10(7H)-carboxamide]
2 | ≥ 150 | A (EC1.5<1 μM) |  | O=C(NC1CC1)N1c2nc(-c3cccc(C(F)(F)F)c3)c(Cl)cc2N2CCC[C@H]1C2 [Example 71, (9S)-3-chloro-N-cyclopropyl-2-(3-(trifluoromethyl)phenyl)-8,9-dihydro-6H-5,9-methanopyrido[2,3-b][1,4]diazocine-10(7H)-carboxamide]
3 | ≥ 150 | A (EC1.5<1 μM) |  | O=C(Nc1nccc(OC[C@H](O)CO)n1)N1c2nc(-c3cccc(C(F)(F)F)c3)c(Cl)cc2N2CCC[C@H]1C2 [Example 78, (9S)-3-chloro-N-(4-((R)-2,3-dihydroxypropoxy)pyrimidin-2-yl)-2-(3-(trifluoromethyl)phenyl)-8,9-dihydro-6H-5,9-methanopyrido[2,3-b][1,4]diazocine-10(7H)-carboxamide]
4 | ≥ 150 | B (EC1.5 1-25 μM) |  | O=C(NC1CC1)c1nc2c(cc1Cl)N1CCC[C@@H](C1)N2C(=O)Nc1ccccn1 [Example 33, (9S)-3-chloro-N2-cyclopropyl-N10-(pyridin-2-yl)-8,9-dihydro-6H-5,9-methanopyrido[2,3-b][1,4]diazocine-2,10(7H)-dicarboxamide]
5 |  | A (EC1.5<1 μM) |  | O=C(NC1CC1(F)F)c1ccc2c(n1)N(C(=O)Nc1cc(OC[C@H](O)CO)ccn1)[C@H]1CCCN2C1 (single isomer, unassigned) [Example 52]
6 | ≥ 150 | A (EC1.5<1 μM) |  | O=C(Nc1cncc(OC[C@H](O)CO)c1)N1c2nc(-c3cccc(C(F)(F)F)c3)c(Cl)cc2N2CCC[C@H]1C2 [Example 76, (9S)-3-chloro-N-(5-((R)-2,3-dihydroxypropoxy)pyridin-3-yl)-2-(3-(trifluoromethyl)phenyl)-8,9-dihydro-6H-5,9-methanopyrido[2,3-b][1,4]diazocine-10(7H)-carboxamide]
7 | ≥ 150 | A (EC1.5<1 μM) |  | C[C@@H](NC(=O)c1ccc2c(n1)N(C(=O)Nc1cnc(OC[C@H](O)CO)cn1)[C@H]1CCCN2C1)C(F)(F)F [Example 49, (9S)-N10-(5-((R)-2,3-dihydroxypropoxy)pyrazin-2-yl)-N2-((R)-1,1,1-trifluoropropan-2-yl)-8,9-dihydro-6H-5,9-methanopyrido[2,3-b][1,4]diazocine-2,10(7H)-dicarboxamide]
8 | ≥ 150 | A (EC1.5<1 μM) |  | O=C(NCC(F)(F)F)c1ccc2c(n1)N(C(=O)Nc1ccccn1)[C@H]1CCCN2C1 [Example 37, (9S)-N10-(pyridin-2-yl)-N2-(2,2,2-trifluoroethyl)-8,9-dihydro-6H-5,9-methanopyrido[2,3-b][1,4]diazocine-2,10(7H)-dicarboxamide]
9 | ≤ 150 |  |  | O=C(Nc1cccnc1)c1cc2c(nc1N1CCCC(C(F)(F)F)C1)N[C@H]1CCCN2C1 (single isomer, unassigned) [Example 60]

Further lines, the compound ahead of its results:

Row | Compound | Emax [%] | TRP Activity (EC1.5, concentration of compound required to increase SIRT1 activity by 50% over control) | TRP MAX RESP (percent maximum fold activation relative to control = 100%)
10 | O=C(Nc1ccccn1)N1c2nc(N3CCC[C@H]3C(F)(F)F)ccc2N2CCC[C@H]1C2 [Example 1, (9S)-N-(pyridin-2-yl)-2-((S)-2-(trifluoromethyl)pyrrolidin-1-yl)-8,9-dihydro-6H-5,9-methanopyrido[2,3-b][1,4]diazocine-10(7H)-carboxamide] | ≥ 150 | B (EC1.5 1-25 μM) | 
11 | Cc1cc(-c2ccc3c(n2)N(C(=O)Nc2cncc(C)n2)[C@H]2CCCN3C2)ccn1 [Example 21] | ≥ 150 | B (EC1.5 1-25 μM) | 
12 | Cc1cc(-c2ccc3c(n2)N(C(=O)Nc2ccccn2)[C@H]2CCCN3C2)ccn1 [Example 4, (9S)-2-(2-methylpyridin-4-yl)-N-(pyridin-2-yl)-8,9-dihydro-6H-5,9-methanopyrido[2,3-b][1,4]diazocine-10(7H)-carboxamide] | ≥ 150 | A (EC1.5<1 μM) | 
13 | O=C(Nc1ccccn1)N1c2nc(N3CCCC(C(F)(F)F)C3)ccc2N2CCC[C@H]1C2 (single isomer, unassigned) [Example 23] |  | B (EC1.5 1-25 μM) | A (Fold activation≥150%)
14 | Cc1cc(-c2ccc3c(n2)N(C(=O)Nc2cnn(C)c2)[C@H]2CCCN3C2)ccn1 [Example 26, (9S)-N-(1-methyl-1H-pyrazol-4-yl)-2-(2-methylpyridin-4-yl)-8,9-dihydro-6H-5,9-methanopyrido[2,3-b][1,4]diazocine-10(7H)-carboxamide] | ≥ 150 | B (EC1.5 1-25 μM) | 
15 | Cc1cc(-c2ccc3c(n2)N(C(=O)Nc2cccnn2)[C@H]2CCCN3C2)ccn1 [Example 14, (9S)-2-(2-methylpyridin-4-yl)-N-(pyridazin-3-yl)-8,9-dihydro-6H-5,9-methanopyrido[2,3-b][1,4]diazocine-10(7H)-carboxamide] | ≥ 150 | A (EC1.5<1 μM) | 
16 | O=C(Nc1ccccn1)N1c2nc(N3CCCC(C(F)(F)F)C3)ccc2N2CCC[C@H]1C2 (single isomer, unassigned) [Example 11] | ≥ 150 | A (EC1.5<1 μM) | 
17 | O=C(Nc1cnccn1)N1c2nc(-c3ccnc(C(F)(F)F)c3)ccc2N2CCC[C@H]1C2 [Example 17, (9S)-N-(pyrazin-2-yl)-2-(2-(trifluoromethyl)pyridin-4-yl)-8,9-dihydro-6H-5,9-methanopyrido[2,3-b][1,4]diazocine-10(7H)-carboxamide] | ≥ 150 | A (EC1.5<1 μM) | 
